Measurements reported in US4584379A, “Isoquinoline thromboxane synthetase inhibitors” (Merrell Dow Pharmaceuticals Inc., priority 1985, dated 1986).

Experiments:
washed platelets = test: 14C-arachidonic acid metabolism by washed platelets (TLC); assay type: cell-based, human
Protocol: Washed platelets (400 μl) prepared as above were placed in a cuvette. Either vehicle (50 μl), isoquinoline test compound, or indomethacin was then added. After incubation for 55 seconds at 37° C., 50 μl of calcium chloride (5 mM) was added and, at 60 seconds, 50 μl of ^14 C-arachidonic acid (0.1 μCi, 0.4 mM) was added. Four minutes later, 80 μl of 10% formic acid was added to stop the reaction. The contents were then poured into 6.5 ml of ice-cold ethyl acetate and the cuvette was further rinsed twice with 1 ml of ethyl acetate. The samples were subsequently extracted as previously described. The dried extract was reconstituted in chloroform:methanol (2:1) and spotted onto TLC plates. PGE2 PGF2α, TXB2 (20 μg of each) were spotted as the reference. The plates were developed in a chloroform:methanol, acetic acid, water (90:8:1:0.8) solution. […] Each plate was visualized with iodine vapor, the Rf s noted and then 1 cm zones scraped and counted in a Beckman Liquid Scintillation spectrometer.

platelet rich plasma [1] = test: arachidonic acid induced platelet aggregation in platelet rich plasma (Born aggregometry); assay type: cell-based, human
Protocol: (§1) The specific inhibitory activity of the present compounds can be determined by the following procedures. For platelet aggregation, blood was collected from normal volunteers into sodium citrate (3.8% w/v) 9:1. The indicated volunteers had not ingested aspirin or other non-steroidal anti-inflammatory drugs for at least 7 days. Platelet rich plasma was prepared from the blood by centrifugation at 200×g for 15 minutes. This plasma was centrifuged at 10,000×g for 2 minutes to obtain platelet poor plasma blank. The platelet rich plasma was incubated at 37° C. for 60 seconds prior to addition of vehicle or compound. The platelet rich plasma was then incubated for an additional 60 seconds prior to the addition of arachidonic acid or ADP. Aliquots (50 μl) were removed at 30 and 60 seconds after the addition of arachidonic acid for determination of iTXB2. Platelet aggregation was monitored in a Model 300 Chronolog aggregometer using the method of Born.

platelet rich plasma [2] = test: ADP induced platelet aggregation in platelet rich plasma (Born aggregometry); assay type: cell-based, human
Protocol: as §1

thromboxane synthetase [3] = test: iTXB2 produced during arachidonic acid induced platelet aggregation; assay type: cell-based, human; settings: 1 mM
Protocol: as §1

thromboxane synthetase [4] = test: iTXB2 production by whole blood after intravenous dosing of rats; assay type: in vivo, Sprague-Dawley rats; settings: 30 minutes prior to obtaining blood, female rats
Protocol: Varying doses of the test compound were administered intravenously to female Sprague-Dawley rats weighing between 250-300 g 30 minutes prior to obtaining blood. […] A dose of 10 mg/kg produced approximately a 50% inhibition of iTXB2 production.

microphages = test: endogenous arachidonic acid metabolism by microphages; assay type: cell-based
Protocol: To establish if the test compound was a selective thromboxane synthetase inhibitor or a fatty acid cyclooxygenase inhibitor, the effects of the isoquinoline on endogenous arachidonic acid metabolism by microphages was assessed. […] The effect on i-6-keto-PGFα levels was variable. At a concentration of 500 μm it inhibited i-6-keto-PGFα formation and at 250 μm it increased its formation. At all other concentrations it had no affect.

COc1ccc2c(c1)c(CC(=O)O)c(C)n2C(=O)c1ccc(Cl)cc1 [indomethacin, reference compound]
inhibition at 50 µM (washed platelets; Homo sapiens, Platelet, 4 min, read-out: reduction of metabolism of arachidonic acid compared to controls): 78%

O=C(O)c1ccc(NCc2cncc3ccccc23)cc1 [isoquinoline, 4-[(4-isoquinolinylmethyl)amino]benzoic acid]
rate of arachidonic acid induced platelet aggregation (platelet rich plasma [1]; 0.5 mM): significantly inhibited | rate of arachidonic acid induced platelet aggregation (platelet rich plasma [1]; 1 mM): significantly inhibited | ADP induced platelet aggregation as compared to control (platelet rich plasma [2]; 1 mM): marked effect | inhibition at 1000 µM (platelet rich plasma [2]; Homo sapiens, Platelet, 1 min, 1000 μM, at 60 seconds, read-out: reduction of ADP aggregation): 30% | amounts of iTXB2 produced during arachidonic acid induced platelet aggregation (thromboxane synthetase [3]; 30 seconds): significantly reduced | amounts of iTXB2 produced during arachidonic acid induced platelet aggregation (thromboxane synthetase [3]; 60 seconds): significantly reduced | percent of arachidonic acid converted to PGE2 (washed platelets; washed platelets): did not affect | percentage of arachidonic acid converted to TXB2 (washed platelets; washed platelets): reduced | total amount of arachidonic acid metabolized via the cyclo-oxygenase pathway (washed platelets; washed platelets, versus vehicle controls): not different from the vehicle controls | inhibition of iTXB2 production (thromboxane synthetase [4]; 10 mg/kg intravenously): ~50% | iTXB2 production by whole blood (thromboxane synthetase [4]; varying doses intravenously): dose dependent reduction | basal synthesis of iTXB2 by microphages (microphages; 10 μM to 1000 μM): significantly reduced | i-6-keto-PGFα formation (microphages; 250 μm): increased | i-6-keto-PGFα formation (microphages; 500 μm): inhibited | i-6-keto-PGFα formation (microphages; all other concentrations): no affect | iPGE levels (microphages; at most concentrations): significantly increased | selectivity for thromboxane synthesis (microphages; conclusion from iTXB2, iPGE and i-6-keto-PGFα levels): appears to selectively inhibit thromboxane synthesis
